# What was measured:
# [1] = test system: SARS-CoV-2; format: cell-based; conditions: Huh7.5 cells, 2 μM, 24 h
# [2] = test system: A549-hACE2 cells; assay: Cytotoxicity assay (LDH release); format: cell-based, human
# Protocol: A549-hACE2 cells were treated with indicated doses of inhibitors for 24 hours. Then the media were collected for lactate dehydrogenase (LDH) assay.
# Supernatant samples are transferred to a 96-well plate and an equal volume of CytoTox 96® Reagent is added to each well and incubated for 30 min.
# [3] = test system: SARS-CoV-2; assay: Antiviral activity in SARS-CoV-2-infected K18-hACE2 transgenic mice; format: in vivo; conditions: K18-ACE2 mice; for viral RNA loads and titers in lung tissue vs vehicle control: 72 h treatment; for inflammatory cytokines and chemokines (IFN-β, TNF-α, IL-1β, IL-6) in lung tissue: infected for 72 hours; for protection from SARS-CoV2-induced weight loss and lethality: intranasal 10 mg/kg once daily for 3 days starting 2 h prior to infection; for protection from SARS-CoV-2-induced weight loss and lethality: intraperitoneal 25 mg/kg twice daily for 5 days, post-infection; for histopathological analysis of lung tissue: treatment for 5 days
# From the text: For these studies, K18-hACE2 transgenic mice (K18-ACE2) were used that express human ACE2 under the control of the epithelial cell cytokeratin-18 (K18) promoter as this model provides robust SARS-CoV-2 infection.
# All animal experiments were approved by the Institutional Animal Care Use Committees at the University of Massachusetts Chan Medical School. Animal were kept in a specific pathogen free (SPF) environment. Hemizygous K18-hACE2 C57BL/6J mice (strain: […] (K18-ACE2)2Prlmn/J) were obtained from The Jackson Laboratory. 8-12-week-old male and female mice were anesthetized with isoflurane and infected intranasally with 3×10^4 PFU of SARS-CoV-2. […] Mice were monitored daily for weight loss and survival. Lung samples were collected at indicated time points and placed in a bead homogenizer tube with 1 ml of DMEM+2% FBS for homogenization, then 100 μl of this mixture was placed in PBS for tittering or in 300 μl Trizol LS (Invitrogen) for RNA extraction. For histology, lungs were perfused with 10 U/mL Heparin, intratracheally inflated with 10% buffered-formalin and dissected from mice. Tissues were fixed in 4% paraformaldehyde overnight and embedded in 10% paraffin. Five micrometer thin sections were stained by H&E. Histomorphology, grading of histology scores and evaluation of inflammation of each H&E slide was evaluated by Applied Pathology Systems.
# [4] = in vivo; conditions: male, C57Bl/6, mouse
# Protocol: Pharmacokinetics were evaluated in male C57Bl/6 mice, approximately 25 g. Test compounds were formulated at 0.3 mg/mL for intravenous dosing and 1 mg/mL for oral gavage. Formulation concentrations reflect free-base concentrations. Formulations were prepared by dissolving in DMSO (20× stock) and mixing 1:1 with tween-80. Prior to dosing, the formulation was diluted with sterile saline. The final formulation was 5% DMSO, 5% tween-80, 90% saline (v:v:v). Mice (n=3) were dosed at 10 μL per gram body weight. […] A total of 25 μL blood was collected at each time point. The hematocrit tubes were sealed with a wax plug and held on ice until plasma could be isolated via centrifugation in a microcentrifuge fit with a hematocrit rotor.
# Drug levels were determined from 5 μL plasma. Plasma was treated with 75 μL 90/10 acetonitrile/water containing Carbamazepine as an internal standard (IS). Samples were loaded to a 96-well Millipore Multiscreen Solvinter 0.45 micron low binding PTFE hydrophilic filter plate and the filtrate was directly analyzed. All plasma samples were treated with 75 μL 90/10 acetonitrile/water with Carbamazepine as internal standard (IS) to extract the analyte and precipitate protein. The plates were agitated on ice for approximately five minutes prior to centrifugation into a collection plate. Separate standard curves were prepared in blank mouse plasma and brain homogenate and processed in parallel with the samples. The filtrate was directly analyzed by LC-MS/MS.
# [5] = Aqueous solubility (comparison in words)
# [6] = target: M^Pro (Severe acute respiratory syndrome coronavirus 2, UniProt P0DTD1); assay: Chemoproteomic enrichment of proteins labelled by SM144 in A549-hACE2 lysate spiked with M^Pro; format: binding, SARS-CoV-2; conditions: 1 μM SM144, lysate spiked with 250 nM M^Pro
# Protocol: The proteome-wide selectivity was evaluated via an orthogonal chemoproteomic assay. […] Subsequently, the labeled proteins were biotinylated with copper-catalyzed click chemistry in the presence of Biotin-azide, and the biotinylated proteins were selectively enriched on Streptavidin-agarose beads, proteolyzed with trypsin and analyzed by chemoproteomic analysis. […] There were, however, a few cellular off-targets, including glutathione reductase (GSHR), adenosylhomocysteinase (SAHH), aldose reductase (ALDR), S-adenosylmethionine synthase isoform type-2 (METK2), gamma-actin (ACTG), tubulin alpha-4A chain (TBA4A), ubiquitin-like modifier-activating enzyme 1 (UBA1) and junction plakoglobin (PLAK).
# A549-hACE2 cell lysate was prepared as described earlier. Endogenous biotinylated proteins were precleared by incubating the lysates with streptavidin-agarose beads (25 μL for 1 mg of total protein in the lysate) at room temperature for 1 h with constant mixing on an end-over-end shaker. The mixture was centrifuged (1200 g, 3 minute) to separate the beads and the supernatant (pre-cleared lysate). […] The assay mixture was incubated at 25° C. for 30 min. Then Biotin-N3 (200 μM), TCEP (1 mM), TBTA (0.3 mM) and freshly prepared CuSO4 (4 mM) were added sequentially, and the tubes were gently tumbled at room temperature for 2 h. […]
structure (smiles),measurement,setting,value
CCOC(=O)C=CC(CC1CCNC1=O)NC(=O)C(Cc1ccccc1)NC(=O)C(N)Cc1ccccc1 (centres unmarked) [SM141],"antiviral activity, in words",[1],almost completely blocks viral infection
same,concentration up to which no notable cytotoxicity is caused,"[2]; A549-hACE2 cells, 24 h, LDH",> 50 µM
same,cytoxcity,[2]; Table 2,>100 µM
same,viral RNA loads and titers in lung tissue vs vehicle control,[3],remarkably lower
same,"inflammatory cytokines and chemokines (IFN-β, TNF-α, IL-1β, IL-6) in lung tissue",[3],Reduced inflammatory cytokines and chemokines were detected
same,protection from SARS-CoV2-induced weight loss and lethality,[3],protects mice from SARS-CoV2-induced weight loss and lethality
same,protection from SARS-CoV-2-induced weight loss and lethality,[3],protects K18-ACE2 mice from SARS-CoV-2-induced weight loss and lethality
same,"in vivo antiviral efficacy, SM141 compared with SM142",[3]; survival,better antiviral efficacy
same,histopathological analysis of lung tissue,[3],significant reduction in lung inflammation and improved overall lung pathology
same,AUC(0-inf),[4]; ip,827 ng·h/mL
same,AUC(0-t),[4]; ip,1.6 µM·h
same,Cmax,[4]; ip,2.7 µM
same,Tmax,[4]; ip,8.4 min
same,bioavailability,[4]; ip,35.2%
same,half-life,[4]; ip,48 min
same,AUC(0-inf),[4]; iv,706 ng·h/mL
same,AUC(0-t),[4]; iv,1.3 µM·h
same,Cmax,[4]; iv,3.9 µM
same,MRT inf,[4]; iv,24 min
same,Tmax,[4]; iv,4.8 min
same,Vd,[4]; iv,1.6 L/kg
same,half-life,[4]; iv,48 min
same,"aqueous solubility, in words",[5],more aqueous solubility than SM142
CCOC(=O)C=CC(CC1CCNC1=O)NC(=O)C(Cc1ccccc1)NC(=O)C(Cc1ccc(F)cc1)NC(=O)OC(C)(C)C (centres unmarked) [SM142],viral RNA loads and titers in lung tissue vs vehicle control,[3],remarkably lower
same,"inflammatory cytokines and chemokines (IFN-β, TNF-α, IL-1β, IL-6) in lung tissue",[3],Reduced inflammatory cytokines and chemokines were detected
same,protection from SARS-CoV2-induced weight loss and lethality,[3],protects mice from SARS-CoV2-induced weight loss and lethality
same,protection from SARS-CoV-2-induced weight loss and lethality,[3],protects K18-ACE2 mice from SARS-CoV-2-induced weight loss and lethality
same,histopathological analysis of lung tissue,[3],significant reduction in lung inflammation and improved overall lung pathology
C#CCOCCC(=O)NC(Cc1ccc(F)cc1)C(=O)NC(Cc1ccccc1)C(=O)NC(C=CC(=O)OCC)CC1CCNC1=O (centres unmarked) [SM144],proteome-wide selectivity (enriched proteins),[6],M^Pro is the most statistically significantly enriched protein

# — patent US20250326715A1, “NOVEL MAIN PROTEASE INHIBITORS, AND COMPOSITIONS AND METHODS THEREOF” (University of Massachusetts, priority 2023, published 2025)
